This is an account of results in patent publication US20250382439A1, “BLUE LIGHT BLOCKING COMPOUND, BLUE LIGHT BLOCKING COMPOSITION, USE OF BLUE LIGHT BLOCKING COMPOUND, USE OF BLUE LIGHT BLOCKING COMPOSITION AND METHOD FOR PREPARING BLUE LIGHT BLOCKING COMPOUND” (Visco Vision Inc., priority 2024, published 2025).

What all share (assay type): physicochemical
Data set [1] can be described thus: Miscibility evaluation: blue light blocking compound dissolved in HEMA and in a silicone hydrogel contact lens composition. The following applies: the higher the value, the greater the miscibility; for miscibility in silicone hydrogel contact lens composition: composition with hydrophilic monomer, first siloxane monomer and second siloxane monomer; for miscibility in HEMA: dissolved in 2-hydroxyethyl methacrylate (HEMA). Here is the method: The blue light blocking compounds of Examples 1 to 3 and Comparative Example 1 are dissolved in 2-hydroxyethyl methacrylate (represented by HEMA in the table, which is also the hydrophilic monomer used to manufacture the ophthalmic device) and a silicone hydrogel contact lens composition for observing the miscibility, and the results are shown in the following TABLE 1. The higher the value in the TABLE 1, the greater the miscibility. The silicone hydrogel contact lens composition used in the miscibility evaluation includes a polymerizable monomer, and the polymerizable monomer includes a hydrophilic monomer, a first siloxane monomer and a second siloxane monomer.

A short description of data set [2]: Blue light absorbance evaluation of ophthalmic devices (absorption spectrum, UV-VIS spectrophotometer SHIMADZU UV-2600). The following applies: 380 nm to 460 nm. The source says: The above components can be mixed in a specific ratio to form the blue light blocking composition for manufacturing an ophthalmic device. In an embodiment, the blue light blocking composition of the present disclosure may be put into a contact lens mold, and components in the blue light blocking composition undergo a curing reaction (thermal curing reaction or photo curing reaction) through heating or irradiating light to form an ophthalmic device. The heating temperature may be between about 30° C. and about 150° C., and the heating time may be between about 1 hour and 12 hours. In an embodiment, the reaction conditions can be heating at 30-70° C. for 0-2 hours, heating at 70-100° C. for 2-4 hours, and heating at 100-150° C. for 4-12 hours. In an embodiment, a hydration process and/or a sterilization process can be performed after the curing reaction. […]
The ophthalmic devices of Examples 4 to 9 and Comparative Examples 2 and 3 are subjected to a blue light absorbance evaluation. The blue light absorbance is measured by absorption spectrum with UV-VIS spectrophotometer (SHIMADZU UV-2600). The blue light absorbance represents the amount of blue light with a wavelength between 380 nm and 460 nm that are absorbed by silicone hydrogel contact lens.

Data set [3] is described as follows: Miscibility evaluation: blue light blocking compound dissolved in HEMA and in a silicone hydrogel contact lens composition.

As for `C=C(C)C(=O)OCCOC(=O)/C(=C/c1ccc(N(C)C)cc1)C(=O)OC` [Example 1], in data set [1], the “miscibility in silicone hydrogel contact lens composition” value is listed as 4.0% and the “miscibility in HEMA” value is recorded as 25%. In data set [2] (ophthalmic device from silicone hydrogel contact lens composition with 1.5% of the compound), this compound showed a blue light absorbance of 56.1%. Besides, the blue light absorbance in data set [2] (ophthalmic device from silicone hydrogel contact lens composition with 2% of the compound) turned out to be 65.3%.

In the case of `C=CS(=O)(=O)c1cc(OC)c(/N=N/C2C(=O)N(c3ccc(S(=O)(=O)[O-])cc3)N=C2C)cc1C.[Na+]` (stereo not drawn) [Comparative Example 1, reference compound], in data set [1], the “miscibility in silicone hydrogel contact lens composition” value is on record as 0.1% and the “miscibility in HEMA” value came out at 5%. Moreover, the “miscibility with the silicone hydrogel contact lens compositions (observation)” value in data set [3] (addition amount 1.0%) is listed as “precipitation occurs”. The “usable addition amount in silicone hydrogel contact lens composition” value in data set [3] (concluded from TABLE 2) was “less than 1.0%”.

As for `C=C(C)C(=O)OCCNC(=O)/C(=C/c1ccc(N(C)C)cc1)C(=O)OC` [Example 3], in data set [1], the “miscibility in silicone hydrogel contact lens composition” value is recorded as 1.5% and the “miscibility in HEMA” value is recorded as 47%.

With `C=C(C)C(=O)OCCOC(=O)C(=Cc1ccc(N(C)C)cc1)C(=O)OCCOC(=O)C(=C)C` [Example 2], in data set [1], the “miscibility in silicone hydrogel contact lens composition” value is on record as 4.6% and the “miscibility in HEMA” value turned out to be 67%.
